From patent publication US20160153991A1, “Synbodies for Detection of Human Norovirus” (priority 2013, published 2016)

Columns and labels:
Type in all cases: binding, Norovirus
nVLP GII.4 = assay: Surface plasmon resonance (SPR) screening of optimized peptides against GII.4; conditions: unpurified peptides against nVLP GII.4; for kd-1: SPR dissociation rate; for % Stability / Avg Binding (Spot 1/2): SPR
Experimental: These 96 peptides were synthesized and tested unpurified against GII.4 via surface plasmon resonance (SPR), a sample of which is shown in FIG. 3. Peptides candidates were analyzed and selected for improved binding and slower dissociation rate. Finally, a list of 10 peptide candidates with improved binding and slower dissociation rates were chosen to construct bivalent peptide affinity reagents (synbodies).

GII.4 Minerva VLP = system: GII.4 Minerva VLP
GII.4 Sydney VLP = GII.4 Sydney VLP (VP1 identity 95%)

Substance	kd-1 (nVLP GII.4) [s]	% Stability (nVLP GII.4) [%]	Avg Binding (Spot 1/2) (nVLP GII.4)	Enrichment Factor from 1 ng/μL solution (GII.4 Minerva VLP; GII.4 Minerva VLP (VP1 identity 100%), 1 ng/μL solution)	enrichment of VLP (in words) (GII.4 Minerva VLP; either GII.4 Minerva or both GII.4 Minerva and GII.4 Sydney)	Enrichment Factor from 1 ng/μL solution (GII.4 Sydney VLP)
AWARSNNSRSKAFNLGWGSC [Mut Peptide-81, optimized peptide]	0.00455	45	127.9	–	–	–
DWARKNNKRKMNFNLGWGSC [Mut Peptide-60, optimized peptide]	0.00487	44	134.3	–	–	–
DWARSNTSRSMDFNLGWGSC [nVLP-2WT]	0.0233	–	2.5	–	–	–
LLYNKTFPHGRWSPSYPGSC [nVLP-1WT]	0.00785	25	71.5	–	–	–
RWHRVDLRSHTELPRYIGSC [nVLP-6WT]	0.00513	37	175.7	–	–	–
RWHRVKLRSHTELNRYIGSC [Mut Peptide-92, optimized peptide]	0.00355	57	229.5	–	–	–
RWVRVKLRSHTELNRYIGSC [Mut Peptide-93, optimized peptide]	0.00332	60	274.2	–	–	–
RWVRVKLRSHTKLRYIGSC [Mut Peptide-94, optimized peptide]	0.00294	63	358.2	–	–	–
SWARSNNKRSKAFNLGWGSC [Mut Peptide-78, optimized peptide]	0.00431	46	168.8	–	–	–
Syn 6-6: synbody 6-6 from Table 2; scaffold not stated (Table 2 lists both nVLP6-6-1571 and nVLP6-6MAP2) (RWHRVDLRSHTELPRYIGSC)	–	–	–	16	enrichment	n.e.
VWARKNNKRKKDFNAGWGSC [Mut Peptide-53, optimized peptide]	0.00408	51	188.8	–	–	–
